Reference: BindingDB's records for doi:10.1016/j.bmc.2007.02.010 (Princeton University, 2007)

Molecular target: T1, E3 ubiquitin-protein ligase XIAP [241-356] (Homo sapiens, UniProt P98170)
T1 construct: 241-356
Assay: Competitive Fluorescent-binding Assay
Conditions: pH 7; 22 °C
Procedure: AVPC-badan can be displaced from the binding pocket of the protein by test compounds. As the dye is displaced from the binding pocket, the emission is reduced and resembles that of the AVPC-badan dye in solution alone. The AUC for the emission spectra of AVPC-badan alone, AVPC-badan, and for the Smac mimic bound to BIR3-XIAP are used to calculate a relative Kd for the Smac mimic. The relative Kd is then converted to an absolute Kd using the Kd value for AVPC-badan, which was determined in a titration assay.

T1 sequence (P98170 241-356): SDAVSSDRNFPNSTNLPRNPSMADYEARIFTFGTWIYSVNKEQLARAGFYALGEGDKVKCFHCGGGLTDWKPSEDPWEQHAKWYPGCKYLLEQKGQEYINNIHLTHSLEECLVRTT

- Kd: 300 µM
SMILES: CC[C@@H](C)[C@H](NC(=O)[C@@H]1CCCN1C(=O)c1coc([C@H](C)N)n1)C(=O)O [(2S,3R)-2-{[(2S)-1-({2-[(1S)-1-aminoethyl]-1,3-oxazol-4-yl}carbonyl)pyrrolidin-2-yl]formamido}-3-methylpentanoic acid]
